Reference: patent publication US20050245520A1, “2-Phenylpyridin-4-yl derivatives as alk5 inhibitors” (priority 2002, published 2005)

Tested on: TGF-β signalling (PAI-1 promoter-luciferase in HepG2 cells)
Test: Cellular transcriptional assay: PAI-1 promoter firefly luciferase reporter in cells exposed to TGF-β
Format: cell-based
Details: 500 μM CPO in presence of TGF-β; relative to TGF-β only
Procedure: Assay 1 (Cellular Transcriptional Assay)
The assay was performed in HepG2 cells stably transfected with the PAI-1 promoter (known to be a strong TGF-β responsive promoter) linked to a luciferase (firefly) reporter gene. The compounds were selected on their ability to inhibit luciferase activity in cells exposed to TGF-β. In addition, cells were transfected with a second luciferase (Renilla) gene which was not driven by a TGF-β responsive promoter and was used as a toxicity control.
96 well microplates were seeded, using a multidrop apparatus, with the stably transfected cell line at a concentration of 35000 cells per well in 200 μl of serum-containing medium. These plates were placed in a cell incubator.
18 to 24 hours later (Day 2), cell-incubation procedure was launched. Cells were incubated with TGF-β and a candidate compound at concentrations in the range 50 nM to 10 μM (final concentration of DMSO 1%). The final concentration of TGF-β (rhTGFβ-1) used in the test was 1 ng/mL. Cells were incubated with a candidate compound 15-30 mins prior to the addition of TGF-β. The final volume of the test reaction was 150 μl. Each well contained only one candidate compound and its effect on the PAI-1 promoter was monitored.
Columns 11 and 12 were employed as controls. Column 11 contained 8 wells in which the cells were incubated in the presence of TGF-β, without a candidate compound. Column 11 was used to determine the ‘reference TGF-β induced firefly luciferase value’ against which values measured in the test wells (to quantify inhibitory activity) were compared. […]
12 to 18 hours later (day 3), the luciferase quantification procedure was launched. […] Following agitation (15 to 30 mins), luciferase activities of the plates were read in a dual-injector luminometer (BMG lumistar). For this purpose, 50 μl of luciferase assay reagent and 50 μl of ‘Stop & Glo’ buffer were injected sequentially to quantify the activities of both luciferases. […] For each of the compounds tested, a concentration response curve was constructed from which an IC50 value was determined graphically.

Row | SMILES | firefly and renilla luciferase activities (toxicity control)
1 | O=C1C=CCC1 [CPO, Cyclopentenone, reference compound] | around 50%

Tested on: not given
Test: not given
Details: not given

Row | melting point [°C] | SMILES
2 | 191 | Cc1cccc(-c2n[nH]cc2-c2ccnc(-c3ccc(OCc4cn(C)cn4)cc3)c2)n1 [Example 1, 2-{4-[(1-methyl-1H-imidazol-4-yl)methoxy]phenyl}-4-[3-(6-methylpyridin-2-yl)-1H-pyrazol-4-yl]pyridine]
3 | 244 | CCS(=O)(=O)c1ccc(-c2cc(-c3c[nH]nc3-c3cccc(C)n3)ccn2)cc1 [Example 2, 2-[4-(Ethylsulfonyl)phenyl]-4-[3-(6-methylpyridin-2-yl)-1H-pyrazol-4-yl]pyridine]
4 | 198 | Cc1cccc(-c2n[nH]cc2-c2ccnc(-c3ccc(C#N)cc3)c2)n1 [Example 3]
5 | 131 | Cc1cccc(-c2n[nH]cc2-c2ccnc(-c3ccc(OC(F)(F)F)cc3)c2)n1 [Example 4]
6 | 190 | Cc1cccc(-c2n[nH]cc2-c2ccnc(-c3ccc(Cl)cc3)c2)n1 [Example 5]
7 | 232 to 234 | Cc1cccc(-c2n[nH]cc2-c2ccnc(-c3ccc(S(C)(=O)=O)cc3)c2)n1 [Example 7]
8 | 148 | Cc1cccc(-c2n[nH]cc2-c2ccnc(-c3ccc(C(=O)NC4CCOCC4)cc3)c2)n1 [Example 14, 4-{4-[3-(6-methylpyridin-2-yl)-1H-pyrazol-4-yl]pyridin-2-yl}-N-(tetrahydro-2H-pyran-4-yl)benzamide]
9 | 170 | Cc1cccc(-c2cn[nH]c2-c2ccnc(-c3ccc(C(=O)NC4CCOCC4)cc3)c2)n1 [Example 18, 3-[2-(4-((tetrahydropyran-4-yl)aminocarbonyl)phenyl)pyridin-yl]-4-[6-methylpyridin-2-yl]-1H-pyrazole]
10 | 210 | Cc1cccc(-c2c[nH]nc2-c2ccnc(-c3ccc(N4CCOCC4)cc3)c2)n1 [Example 20]
11 | 128 | Cc1cccc(-c2c[nH]nc2-c2ccnc(-c3ccc(CN4CCOCC4)cc3)c2)n1 [Example 21]
12 | 222 | COc1ccc(-c2cc(-c3c(-c4ccccn4)nc4ccccn34)ccn2)cc1 [Example 34, 3-[2-(4-methoxyphenyl)-pyridin-4-yl]-2-pyridin-2-yl-imidazo[1,2-a]pyridine]
13 | 135 | Cc1cccc(-c2nc3ccccn3c2-c2ccnc(-c3ccc(NS(=O)(=O)C(F)(F)F)cc3)c2)n1 [Example 53, 2-(6-methyl-pyridin-2-yl)-3-{2-[4-(trifluoromethylsulfonylamino)phenyl]-pyridin-4-yl}-imidazo[1,2-a]pyridine]
14 | 145 | c1ccc(-c2nc3ccccn3c2-c2ccnc(-c3ccc(N4CCOCC4)cc3)c2)nc1 [Example 54, 3-[2-(4-(morpholin-4-yl)-phenyl)-pyridin-4-yl]-2-pyridin-2-yl-imidazo[1,2-a]pyridine]
15 | 150 | CN1CCN(c2ccc(-c3cc(-c4c(-c5ccccn5)nc5ccccn45)ccn3)cc2)CC1 [Example 55, 3-{2-[4-(4-methylpiperazin-1-yl)-phenyl]-pyridin-4-yl}-2-pyridin-2-yl-imidazo[1,2-a]pyridine]
16 | 156 | Cc1cccc(-c2nc3ccccn3c2-c2ccnc(-c3ccc(CN4CCOCC4)cc3)c2)n1 [Example 56, 2-(6-methyl-pyridin-2-yl)-3-[2-(4-(morpholin-4-ylmethyl)phenyl)-pyridin-4-yl]-imidazo[1,2-a]pyridine]
17 | 110 | Cc1cccc(-c2nc3ccccn3c2-c2ccnc(-c3ccc(C(=O)N4CCOCC4)cc3)c2)n1 [Example 66, 2-(6-methyl-pyridin-2-yl)-3-{2-[4-((morpholin-4-yl)carbonyl)phenyl]-pyridin-4-yl}-imidazo[1,2-a]pyridine]
18 | 165 | COCCCNC(=O)c1ccc(-c2cc(-c3c(-c4cccc(C)n4)nc4ccccn34)ccn2)cc1 [Example 67, 2-(6-methyl-pyridin-2-yl)-3-{2-[4-((3-methoxypropylamino)carbonyl)phenyl]-pyridin-4-yl}-imidazo[1,2-a]pyridine]
19 | 217 | Cc1ccn2c(-c3ccnc(-c4ccc(OCc5cn(C)cn5)cc4)c3)c(-c3cccc(C)n3)nc2c1 [Example 75, 7-methyl-2-(6-methyl-pyridin-2-yl)-3-{2-[4-((1-methyl-imidazol-4-yl)methyloxy)phenyl]-pyridin-4-yl}-imidazol[1,2-a]pyridine]

Row | melting point [°C] | SMILES
20 | 120 | Cc1cccc(-c2nc3ccccn3c2-c2ccnc(-c3ccc(OCc4cn(C)cn4)cc3)c2)n1 [Example 76, 2-(6-methyl-pyridin-2-yl)-3-{2-[4-((1-methyl-imidazol-4-yl)methyloxy)phenyl]-pyridin-4-yl}-imidazo[1,2-a]pyridine]
21 | 213 | Cc1ccn2c(-c3ccnc(-c4ccc(OCC(N)=O)cc4)c3)c(-c3cccc(C)n3)nc2c1 [Example 77, 7-methyl-2-(6-methyl-pyridin-2-yl)-3-{2-[4(aminocarbonylmethyloxy)phenyl]-pyridin-4-yl}-imidazo[1,2-a]pyridine]
22 | 183 | Cc1cccc(-c2nc3c(C)cccn3c2-c2ccnc(-c3ccc(OCC(N)=O)cc3)c2)n1 [Example 78, 8-methyl-2-(6-methyl-pyridin-2-yl)-3-{2-[4-(aminocarbonylmethyloxyl)phenyl]-pyridin-4-yl}-imidazo[1,2-a]pyridine]
23 | 190 | Cc1cccc(-c2nc3ccccn3c2-c2ccnc(-c3ccc(N4CCOCC4)cc3)c2)n1 [Example 79, 2-(6-methyl-pyridin-2-yl)-3-{2-[4-(morpholin-4-yl)phenyl]-pyridin-4yl}-imidazo[1,2-a]pyridine]
24 | 208 | Cc1ccn2c(-c3ccnc(-c4ccc(N5CCOCC5)cc4)c3)c(-c3cccc(C)n3)nc2c1 [Example 80, 7-methyl-2-(6-methyl-pyridin-2-yl)-3-{2-[4-(morpholin-4-yl)phenyl]-pyridin-4-yl}-imidazo[1,2-a]pyridine]
25 | 174 | Cc1cccc(-c2[nH]c(C(C)(C)C)nc2-c2ccnc(-c3ccc(C(=O)NC4CCOCC4)cc3)c2)n1 [Example 81]
26 | 187 | Cc1cccc(-c2[nH]c(C(C)(C)C)nc2-c2ccnc(-c3ccc(CN(C)C)cc3)c2)n1 [Example 101, (4-{4-[2-tert-Butyl-5-(6-methyl-pyridin-2-yl)-1H-imidazol-4-yl]-pyridin-2-yl}-benzyl)-dimethyl-amine]
27 | 210 | Cc1cccc(-c2[nH]c(C(C)(C)C)nc2-c2ccnc(-c3ccc(OCC(N)=O)cc3)c2)n1 [Example 107, 2-{4-[4-(2-tert-Butyl-5-{6-methyl}pyridin-2-yl-1H-imidazol-4-yl)-pyridin-2-yl]-phenoxy}-acetamide]
28 | 168 | Cc1cccc(-c2[nH]c(C(C)(C)C)nc2-c2ccnc(-c3ccc(OCCN4CCCC4)cc3)c2)n1 [Example 108, 4-(2-tert-Butyl-5-{6-methyl}-pyridin-2-yl-1H-imidazol-4-yl)-2-[4-(2-pyrrolidin-1-yl-ethoxy)-phenyl]-pyridine]
29 | 156 | Cn1cnc(COc2ccc(-c3cc(-c4nc(C(C)(C)C)[nH]c4-c4ccccn4)ccn3)cc2)c1 [Example 109, 4-(2-tert-Butyl-5-pyridin-2-yl-1H-imidazol-4-yl)-2-[4-(1-methyl-1H-imidazol4-ylmethoxy)-phenyl]-pyridine]
30 | 246 | Nc1nc(-c2ccccn2)c(-c2ccnc(-c3ccc(N4CCOCC4)cc3)c2)s1 [Example 111]
31 | 222 | Cc1cccc(-c2sc(N)nc2-c2ccnc(-c3ccc(Cl)cc3)c2)n1 [Example 125]
32 | 232 | Cc1cccc(-c2sc(N)nc2-c2ccnc(-c3ccc(OC(F)(F)F)cc3)c2)n1 [Example 126]
33 | 219 | CCS(=O)(=O)c1ccc(-c2cc(-c3nc(N)sc3-c3cccc(C)n3)ccn2)cc1 [Example 127]
34 | 236 | Cc1cccc(-c2sc(N)nc2-c2ccnc(-c3ccc(CN4CCOCC4)cc3)c2)n1 [Example 131]
35 | 246 | Cc1cccc(-c2sc(N)nc2-c2ccnc(-c3ccc(N4CCOCC4)cc3)c2)n1 [Example 132]
36 | 191 | Cc1cccc(-c2sc(N)nc2-c2ccnc(-c3ccc(OCC(N)=O)cc3)c2)n1 [Example 134]
37 | 210 | Cc1cccc(-c2sc(N)nc2-c2ccnc(-c3ccc(CN(C)C)cc3)c2)n1 [Example 137]
